Measurements as given in PubChem BioAssay AID1996.
Converted amounts (≈) assume the structure as drawn.

Details: buffer; pH 7.4; 200.0 µM

SMILES	solubility kinetic [µg/mL]
Cc1ccc(NC(=O)CN(C)Cc2ccc(Cl)cc2)cc1	20.6 (≈ 68 µM)
O=C(O)CCN1c2cccc3cccc(c23)S1(=O)=O	> 41.6
Cc1nc(C)c(/C(O)=C\c2nc3ccc([N+](=O)[O-])cc3oc2=O)o1	> 49.4
O=[N+]([O-])c1ccccc1S(=O)(=O)NCCSCc1ccco1	51 (≈ 149 µM)
Cc1ccc(C2NC(=O)c3ccccc3O2)cc1 (configuration not stated)	10.6 (≈ 44.3 µM)
Cc1ccc(/C=C/C(=O)OCC(=O)NC(=O)NCc2ccccc2)cc1	3.8 (≈ 10.8 µM)
O=C(NC1CCCCC1)c1ccc2c(c1)OCO2	> 37.1
CCc1ccc(S(=O)(=O)N2CCN(c3ncccn3)CC2)cc1	1.7 (≈ 5.11 µM)
Cc1ccc(/C=C(\C#N)C(=O)NC(C)C)o1	> 32.7
CCOC(=O)c1c[nH]c2ccc3ccccc3c2c1=O	10.3 (≈ 38.5 µM)
COCc1c(C(=O)OCC(=O)c2ccc[nH]2)oc2ccccc12	11.1 (≈ 35.4 µM)
CCCCN(C(=O)c1c(-c2ccccc2)noc1C)c1c(N)n(CCC)c(=O)[nH]c1=O	> 63.8
COc1ccc(C(=O)OCC(=O)Nc2ccc(Cl)cn2)cc1	1.2 (≈ 3.74 µM)
Cc1ccccc1N=C1NC(=O)/C(=C/c2cccn2C)S1	3.3 (≈ 11.1 µM)
CN(C)CCCNc1nc(N)c([N+](=O)[O-])c(NCCO)n1	39 (≈ 130 µM)
Cc1ccc(Nc2nc(Cl)nc(NC3CCCCC3)n2)cc1	< 0.1
CCOc1ccc(NC(=O)CCn2ccnc2)cc1	> 38.9
O=C(Cc1ccc(Br)cc1)OCC(=O)c1ccc[nH]1	10.3 (≈ 32 µM)
Cl.O=C(CN1CCCC1)N1c2ccccc2C=Cc2ccccc21	> 51.1
CN(CC(=O)Nc1ccc(F)cc1)CC(=O)N1CCc2ccccc21	> 51.2
CC(C)(C)C(=O)NC(=S)Nc1ccc(C(F)(F)F)cc1	1.1 (≈ 3.61 µM)
COC1C(C)=C(C)C(=O)N1Cc1ccccc1 (configuration not stated)	33.9 (≈ 147 µM)

SMILES	solubility kinetic [µg/mL]
COCCCNC(=O)C1c2ccccc2Oc2ccccc21	15.2 (≈ 51.1 µM)
Cc1c(C)n(CCO)c2ncnc(Nc3ccc(F)cc3)c12	> 45.1
Cc1cc(C)c(S(=O)(=O)N2CCN(C(=O)N(C)C)CC2)c(C)c1	> 50.9
COC(=O)CC(c1ccc(C(C)C)cc1)n1cccc1 (configuration not stated)	2.5 (≈ 9.21 µM)
O=C(NCCNC(=O)c1ccccc1)c1ccccc1	> 40.2
CCOc1ccccc1NC(=O)NC1Cc2ccccc2C1	< 0.3
Cc1csc(C(=O)O)c1NC(=O)c1ccc(F)cc1	> 41.9
Cc1ccc(-c2cc(C(=O)N3CCC4(CC3)OCCO4)no2)cc1	44 (≈ 134 µM)
COc1cc(NC(=O)CN2C(=O)CN(C)C2=O)c(C)cc1[N+](=O)[O-]	> 50.4
CN(C)C(=O)Oc1cccc([N+](C)(C)C)c1.COS(=O)(=O)[O-]	> 50.2
CSC1=NCCN1C(=O)c1ccc2ccccc2c1	1.9 (≈ 7.03 µM)
O=C(COC(=O)c1cnc(Cl)c(Cl)c1)NC1CC1	> 43.4
CC1(C)C(=O)Nc2ccccc2N1C(=O)COC(=O)Cc1ccc(Cl)c(Cl)c1	10.1 (≈ 24 µM)
CC1(C)CC(=O)C2=C(C1)Nc1ccccc1NC2c1cccc(F)c1 (configuration not stated)	> 50.5
COc1ccc(S(=O)(=O)N2CCSC2C)cc1C (configuration not stated)	34.9 (≈ 121 µM)
N#CC(C(=S)Nc1ccccc1)c1nc2ccccc2[nH]1 (configuration not stated)	0.9 (≈ 3.08 µM)
COc1ccc2[nH]c3c(NCCCOC(C)C)ncnc3c2c1	44.7 (≈ 142 µM)
Cc1c(C(=O)Nc2cccnc2)oc2ccc(Br)cc12	< 0.4
COc1ccc(OC)c(N/C=C/C(=O)c2ccc(OC)c(OC)c2)c1	< 0.7
O=C(/C=C/c1ccccn1)c1cc(Cl)cc(Cl)c1O	5.9 (≈ 20.1 µM)
CC(=O)c1ccc(NC(=O)CCNC(=O)c2ccccc2Cl)cc1	48.8 (≈ 142 µM)
COC(=O)c1ccc(N2CCc3ccccc32)c([N+](=O)[O-])c1	1 (≈ 3.35 µM)

SMILES	solubility kinetic [µg/mL]
O=c1[nH]c(=S)n(-c2ccccc2)c(O)c1C=NCCN1CCNCC1	> 53.9
O=C(NCc1cccc(C(F)(F)F)c1)c1ccc(=O)[nH]c1	> 44.4
CC1CCCN(C2(O)C(=O)Nc3ccc(Cl)cc32)C1 (configuration not stated)	> 42.1
CO/N=C1\CCn2c1c(C)c1ccccc12	0.8 (≈ 3.73 µM)
O=C(OCc1nc2ccccc2s1)c1ccco1	35.4 (≈ 137 µM)
O=Cc1c(C(=O)O)n(Cc2ccccc2F)c2ccccc12	> 44.6
COc1ccc(-c2csc3ncnc(NCCO)c23)cc1	> 45.2
CC(C)N1CCNCC1.Cl	23.1
CCS(=O)(=O)N1CCC(C(=O)Nc2cccc(F)c2)CC1	> 47.2
O=C(CSc1cc(Cl)ccc1Cl)NC1CCCC1	3.6 (≈ 11.8 µM)
O=C(CC1(CC(=O)N2CCOCC2)CCCC1)Nc1ccc(F)cc1	> 52.3
COC(=O)c1ccc(C(=O)O)nc1	21.5 (≈ 119 µM)
CCNC(=O)CC1C(=O)N(c2ccccc2)C(=O)N1CCOC (configuration not stated)	> 47.9
CN(Cc1ccccc1)C(=S)NC(=O)c1ccccc1	7.5 (≈ 26.4 µM)
Fc1ccc(NC(=S)N2CCN(c3ccccn3)CC2)cc1Cl	< 0.2
COc1ccc(-n2cnc3ccccc3c2=O)c([N+](=O)[O-])c1	> 44.6
CC(C)(C)NC(=O)NC(=O)COC(=O)c1cc[n+]([O-])cc1	> 44.3
COc1ccccc1/C=C/C(=O)OCC(=O)NC1CCS(=O)(=O)C1 (configuration not stated)	> 53
CCC(=O)N(Cc1cc(=O)[nH]c2ccccc12)c1ccc(C)cc1	> 48.1
O=C(Cc1ccc([N+](=O)[O-])cc1)NCC1CCCO1 (configuration not stated)	> 39.6
COC(=O)c1ccccc1NC(=O)c1ccc[nH+]c1.[Cl-]	> 43.9
CSc1cccc(NC(=S)NC(=O)CCc2ccccc2)c1	0.7 (≈ 2.12 µM)

SMILES	solubility kinetic [µg/mL]
CC(C)(C)CC(=O)NCc1cccs1	> 31.7
CC(C)CC1NC(=O)N(CC(=O)Nc2ccc3c(c2)CCC3)C1=O (configuration not stated)	5.6 (≈ 17 µM)
CCNC(=O)CSc1nc(-c2ccc(F)cc2)cs1	42.8 (≈ 144 µM)
O=C1/C(=C\c2ccc(O)cc2)SC(=S)N1Cc1ccccc1	< 0.7
CC(=O)Nc1ccc(S(=O)(=O)Nc2nc3ccccc3nc2N2CCOCC2)cc1	> 64.1
O=C1C(c2ccccc2)NC(=S)N1C1CCCCC1 (configuration not stated)	2.4 (≈ 8.75 µM)
CCc1ccc(Oc2ncnc(N)c2[N+](=O)[O-])cc1	5 (≈ 19.2 µM)
Cc1cc(C)c(NC(=O)CSc2cccc[n+]2[O-])c(C)c1	> 45.4
CCOC(=O)c1c(C)nc(C)c2c(=O)oc3ccccc3c12	< 0.6
CC(C)C(=O)Nc1cc2c3c(c1)CCN3C(=O)CC2	38.7 (≈ 150 µM)
COc1c(F)c(F)cc2c(=O)c(C(=O)O)cn(C3CC3)c12	> 44.3
COc1ccc(-c2cn3ccccc3n2)cc1	> 33.6
CCC(=O)NC(c1ccccc1)c1c(O)ccc2ccccc12 (configuration not stated)	0.9 (≈ 2.95 µM)
CC(=O)N/C(=N/c1nc(C)cc(C)n1)Nc1cccc(C)c1C	4.9 (≈ 15.7 µM)
COc1ccc(/C=C/C(=O)OCC(=O)NC2CCCC(C)C2C)cc1 (configuration not stated)	6.1 (≈ 17.7 µM)
CCN(CC)Cc1cc(O)c(CN(CC)CC)cc1O	> 42.1
O=C(O)C1C2CCC(O2)C1C(=O)Nc1ccc(F)c(Cl)c1 (configuration not stated)	> 47.1
CC[N+](C)(C)c1cccc(O)c1.[Cl-]	> 30.3
Cc1[nH]c2ccccc2c1SCC(=O)Nc1nccs1	4.8 (≈ 15.8 µM)
Cc1ccc(C(=O)O)cc1NC(=O)C1=CSCCO1	> 41.9
CSc1nc(N)nc(C2CC2)n1	24.4 (≈ 134 µM)
